In one data set the test system is U937 cells. Put plainly: Lysis of tumor cells: apoptosis of U937 by 3H-thymidine. The note with it: U937, 50 μM peptide, 4-6 hours.
Data set [1] concerns human peripheral blood mononuclear cells (PBMC). Put plainly: Propidium iodide uptake in PBMC. The data set is classed as cell-based. The text has this: The second assay for effects on mammalian cells involved isolating human peripheral blood mononuclear cells (PBMC) and testing peptide induced uptake of propidium iodide (PI), a measure of membrane disruption. […] Thus, the vast majority of granulysin peptide derivatives are not toxic to mammalian cells even at high concentrations.

Another data set has as its system E. coli DH5a. Format: cell-based. The settings on record: DH5a, pH 7.2. In a few lines: (§1)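 Peptides and bacteria (~5×10^6 CFU/ml) incubated 3 hours at 37° C in 10 mM phosphate buffer pH 7.2 with 0.03% LB. LB then added, overnight growth, OD600 read. MIC = lowest concentration with no growth; IC50 = concentration giving 50% growth relative to medium.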
For the next data set, the system named is B. cereus. The data set is classed as cell-based. The settings on record: pH 7.2. In a few lines: as §1
In a further data set the test system is Salmonella. The data set is classed as cell-based, S. typhimurium. The note with it: pH 7.2. Summed up: as §1
In a further data set the test system is E. coli. The settings on record: previously reported; cited from earlier work.

Square brackets hold non-standard residues; d marks the D form. Peptide text beside a SMILES is read from it. Where only a bound is given, the exact number is not on record here.

Method for U937 cells: The effects were tested in two ways. First, peptides were tested for the ability to lyse tumor cells, as judged by induction of apoptosis in the monocyte-like cell line U937. U937 cells were cultured overnight in DMEM supplemented with 10% FCS plus 1 μCi/ml ^3H-thymidine. The next day, cells were washed and cultured in DMEM/10% FCS in the presence of 50 μM peptide for 4-6 hours. Cells were then harvested and ^3H-thymidine determined by beta-scintillation counting. Apoptosis results in DNA fragmentation, so the ^3H-thymidine is reduced in cells undergoing apoptosis.

As to `CSCC[C@@H](NC(=O)[C@@H](Cc1ccccc1)NC(=O)[C@@H](CCCNC(=N)N)NC(=O)[C@@H](CCCNC(=N)N)NC(=O)[C@@H](CO)NC(=O)[C@H](NC(=O)[C@@H](CCCNC(=N)N)NC(=O)[C@H](N)CCCNC(=N)N)C(C)C)C(=O)N[C@H](CCCNC(=N)N)C(=O)N[C@H](CCCNC(=N)N)C(=O)N[C@H](Cc1ccc(O)cc1)C(=O)N[C@H](CCCNC(=N)N)C(=O)N[C@H](CO)C(=O)N[C@H](CCCNC(=N)N)C(=O)N[C@H](CCCNC(=N)N)C(=O)N1CCC[C@@H]1C(=O)N[C@H](CCCNC(=N)N)C(=O)N[C@H](CCCNC(=N)N)C(=O)N[C@H](CC(C)C)C(=O)N[C@@H](C(=O)O)C(C)C` [Peptide G12.35, rrvsrrfmrryrsrrprrlv] (H-[dR][dR][dV][dS][dR][dR][dF][dM][dR][dR][dY][dR][dS][dR][dR][dP][dR][dR][dL][dV]-OH), in the data set on U937 cells, the “apoptosis of tumor cells” value is “cause apoptosis of tumor cells”. Further, in data set [1], the “toxicity against mammalian cells” value is reported as “somewhat less toxic against mammalian cells”. Further, in data set [1] (50 μM peptide, three hours), the “PI uptake in normal human PBMC” value was “caused PI uptake in normal human PBMC”. For the same molecule, in the data set with E. coli DH5a, the “E. coli DH5a MIC” value turned out to be 0.11 µM and the concentration for half-maximal inhibition (IC50) was less than 78 nM. For the same molecule, in the data set with B. cereus, the “B. cereus MIC” value amounted to 0.75 µM and inhibition was half-maximal at 450 nM (IC50). For the same molecule, in the data set with Salmonella, the IC50 worked out at 210 nM and the “Salmonella MIC” value turned out to be 0.32 µM.

B1: recombinant granulysin: protein expressed by human cytotoxic T lymphocytes and natural killer cells, recombinant form (protein, UniProt P22749 23-145, looked up)
Granulysin: RLSPEYYDLARAHLRDEEKSCPCLAQEGPQGDLLTKTQELGRDYRTCLTIVQKLKKMVDKPTQRSVSNAATRVCRTGRSRWRDVCRNFMRRYQSRVTQGLVAGETAQQICEDLRLCIPSTGPL
Consider B1, for which the “activity depending on ionic strength of media” value in the data set on E. coli is given as “completely loses activity in media>50 mM salt”.

Broadly, the IC50 is the concentration that inhibits the measured activity by half. Read a low IC50 as greater potency.

Values taken from patent US7745390B2, “Antimicrobial peptides” (priority 2005, dated 2010).
